{"source": "patent US20090042987A1", "about": "“TREATMENT OF NEUROPATHIC PAIN” (priority 2007, published 2009)", "test_system": "STZ-diabetic rats", "experiment": "von Frey paw withdrawal thresholds, STZ-diabetic rats given multiple dosing regimens (washout protocol), Example 1", "assay_type": "in vivo, rat", "experimental": "Experimental Animals Ethical approval for this study was obtained from the Animal Experimentation Ethics Committee of The University of Queensland. Adult male Sprague-Dawley (SD) rats (222±4 g) were used for this study. Rats were housed in a temperature controlled room (21+2.0 C) with a 12/12 hour light/dark cycle. Food and water were available ad libitum. Initiation of drug administration occurred at 8-11 weeks post-STZ administration for rats in Experiment 1 (PCT-001) and at 10-12 weeks post-STZ administration for rats in Experiment 2 (PCT-007).\nTest Article Tranilast was supplied by the Sponsor and stored at −4° C. until use. Gabapentin (100 mg/kg, dissolved in water for injection) was utilized as the positive control for this study.\nTest Article and Vehicle Preparation Test article formulations were prepared freshly on the day of administration by weighing the appropriate amount of bulk powder and suspending it in the required volume of vehicle. Carboxymethyl cellulose ((CMC) 0.5% in water for injection) was utilized as the vehicle for this study.\nTest Article Administration. […] The maximum oral gavage volume administered in this study was […]. 4.4\nSTZ-Diabetic Rat Model of Painful Diabetic Neuropathy. Painful diabetic neuropathy is a common long-term complication of diabetes in humans that develops as a result of a sustained biochemical nerve injury. […] Following the induction of diabetes with intravenous STZ at 70-80 mg/kg, it generally takes 6-8 wks for tactile allodynia, the defining symptom of PDN, to fully develop in both rat hindpaws.\nInduction of STZ-Diabetes in Rats. On day 0, rats were anaesthetized with 3% isoflurane:97% O2 and a short polyethylene cannula (0.5 mm ID, 0.8 mm OD) was inserted into the jugular vein to facilitate the intravenous (i.v.) administration of a single dose of streptozotocin (STZ: 70-80 mg/kg). After STZ injection, the cannula was removed and the jugular vein was tied off and the wound was closed. Rats received subcutaneous benzylpenicillin (60 mg) prior to surgery to prevent infection and were kept warm during surgical recovery. Rats were housed singly prior to further experimentation and were monitored daily from the time of STZ administration with regard to general health and well-being.\nVon Frey Assessment of Paw Withdrawal Thresholds. Calibrated von Frey filaments were used to determine the lowest mechanical threshold required to evoke a brisk paw withdrawal reflex in the rat hindpaws. Briefly, rats were transferred individually to wire mesh testing cages (20 cm×20 cm×20 cm) and allowed to acclimatize for approximately 10-20 min prior to von Frey testing. Commencing with the von Frey filament that produced the 6 g force, the filament was applied to the plantar surface of the hindpaw until the filament buckled slightly. Absence of a response after 3 s prompted use of the next filament of increasing weight. A withdrawal response within 3 s prompted use of the next filament of decreasing weight. Filaments used produced buckling weights of 2, 4, 6, 8, 10, 12, 14, 16, 18 and 20 g. […] Tactile allodynia is regarded as being fully developed when von Frey PWTs in the injured hindpaws are <6 g.\nRestoring von-Frey PWTs in the hindpaws from <6 g to pre-STZ surgery levels (12±2 g) is the treatment goal representing full reversal of tactile allodynia. If drug treatment increases PWTs above pre-surgical baseline values (i.e. >12±2 g), such a response is classified as antinociception. Before administration of STZ, baseline von Frey measurements were assessed. Following STZ administration, baseline PWTs were assessed in the hindpaws at week 8-11 to confirm the development of diabetes-induced tactile allodynia. […]"}
{"smiles": "COc1ccc(/C=C/C(=O)Nc2ccccc2C(=O)O)cc1OC", "note": "[Tranilast, 2-[[3-(3,4-dimethoxyphenyl)-1-oxo-2-propenyl]amino]benzoic acid]", "values": [{"measurement": "Mean (±SEM) PWT at the mean time of peak response", "setting": "tranilast 300 mg/kg oral, 7th twice-daily dose, 1.5 h post-dosing", "result": "9.8 (±1.1) g"}, {"measurement": "Time of peak anti-allodynia post-dosing", "setting": "tranilast 300 mg/kg oral, 7th twice-daily dose, multiple dosing regimens", "result": "1 to 1.5", "unit": "h"}, {"measurement": "Mean (±SEM) PWT pre-dose", "setting": "tranilast 300 mg/kg oral, 7th twice-daily dose, pre-dose", "result": "5.1 (±0.4) g"}, {"measurement": "Anti-allodynia in the hindpaws", "setting": "tranilast 30, 100, 200, 300 mg/kg oral, 7 consecutive twice-daily doses, multiple dosing regimens", "result": "significant anti-allodynia was produced only by the 300 mg/kg dosing regimen"}, {"measurement": "Relief of tactile allodynia, dose dependence", "setting": "tranilast 100-300 mg/kg oral, 7 consecutive twice-daily doses, up to 5 dosing regimens, 2-3 day washout", "result": "dose-dependent relief of tactile allodynia"}]}
